Experiments:
Mushroom tyrosinase (MT) = test system: T1, Mushroom tyrosinase (MT); conditions: read-out: KM, mM / Solution; free enzyme in solution; pH 6.0 buffer; air oxygen
T1 construct: gene PPO3

[1] = molecular target: T2, Horseradish peroxidase (HRP) (Armoracia rusticana, UniProt P00433); experiment: absorbance at […] nm, initial rates; format: biochemical; conditions: H2O2 as co-substrate; enzyme in solution and in sol-gel films; pH 6.0
T2 construct: gene PRXC1A
T2 sequence (P00433 31-338): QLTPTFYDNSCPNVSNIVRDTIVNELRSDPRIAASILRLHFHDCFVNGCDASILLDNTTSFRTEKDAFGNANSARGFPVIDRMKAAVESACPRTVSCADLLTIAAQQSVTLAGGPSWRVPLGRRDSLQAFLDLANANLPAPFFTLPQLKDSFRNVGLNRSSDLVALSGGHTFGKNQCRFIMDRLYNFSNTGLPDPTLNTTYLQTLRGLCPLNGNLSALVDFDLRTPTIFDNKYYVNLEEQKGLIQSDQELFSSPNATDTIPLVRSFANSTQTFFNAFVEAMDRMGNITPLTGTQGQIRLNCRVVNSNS

Km (Mushroom tyrosinase (MT)) [mM]	Structure (SMILES)	absorbance at 650 nm, initial rates [1]
1.1	O=C(O)/C=C/c1ccc(O)c(O)c1 [Caffeic acid]	–
–	Cc1cc(-c2cc(C)c(N)c(C)c2)cc(C)c1N [3,3′,5,5′-tetramethylbenzidine]	hydrogen peroxide reduction with TMB oxidation

Source: paper PMC10048095, “Sol-Gel Films Doped with Enzymes and Banana Crude Extract as Sensing Materials for Spectrophotometric Determination” (Gels, 2023)
